Among the data in BindingDB's records for patent US12370182 (Richter Gedeon, 2025) are Ki values, retold here.

The target in the assay is T1, Gamma-aminobutyric acid receptor subunit alpha-5 (Homo sapiens, UniProt P31644).
T1 sequence (P31644 whole entry): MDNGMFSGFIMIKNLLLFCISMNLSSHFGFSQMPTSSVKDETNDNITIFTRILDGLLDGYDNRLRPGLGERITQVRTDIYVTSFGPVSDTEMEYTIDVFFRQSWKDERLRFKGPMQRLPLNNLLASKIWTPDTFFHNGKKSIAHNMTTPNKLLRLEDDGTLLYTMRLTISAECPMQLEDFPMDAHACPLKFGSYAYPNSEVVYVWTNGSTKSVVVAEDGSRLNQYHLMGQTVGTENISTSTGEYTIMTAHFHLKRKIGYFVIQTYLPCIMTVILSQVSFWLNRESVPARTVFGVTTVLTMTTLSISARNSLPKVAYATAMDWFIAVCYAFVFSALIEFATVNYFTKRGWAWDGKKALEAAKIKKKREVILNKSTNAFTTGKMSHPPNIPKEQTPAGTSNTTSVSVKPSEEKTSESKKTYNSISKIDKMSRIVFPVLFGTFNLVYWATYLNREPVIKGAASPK
Put plainly: Binding Assay. The protocol:
Receptor binding assays were performed in 96-well format in deep-well plates. For each 96-well plate one ampulle of membrane homogenate was thawed and diluted in binding buffer (50 mM Tris pH=7.4, 100 mM KCl) and 200 μL was dispensed into each well. Radioligand [3H]Ro151788 (Perkin Elmer: NET757250UC) was prepared in binding buffer and added to each well in 50 μL volume to give final concentration of 0.5 nM. Test compounds in suitable concentration(s) were added in additional 50 μL. The final assay volume was 300 μL. Incubation was carried out for 60 minutes at 4° C. For non-specific binding 10 μM unlabeled diazepam was used. After incubation samples were filtered over UniFilter GF/B™ using Filtermate Harvester (Perkin Elmer) and washed with 5×1 mL binding buffer. The plate was dried at 40° C. for an hour and 40 μL Microscint (Perkin Elmer) scintillation cocktail was added to each well. The plate was read in Microbeta (Perkin Elmer).

As for `Cc1nnn(-c2ccc(F)cc2)c1COc1ccc2c(n1)CN(C(=O)C(F)(F)F)C2` [US12370182, Example 51], affinity was put at a Ki of 31 nM. For the compound `Cc1onc(-c2ccc(F)cc2)c1COc1ccc2c(n1)CCN(C(=O)N1CCCCC1)C2` [US12370182, Example 85], the Ki was 36 nM.

As usually defined, the Ki is the equilibrium dissociation constant of an inhibitor or competing ligand from its target.
